Reference: the NIST ThermoML archive (doi:10.1016/j.jct.2010.06.011)
Numbers after ± are expanded uncertainties.

Assays:
[1] = Liquid, Vibrating tube method
[2] = xn = mol fraction of the nth substance listed; settings: Liquid, Vibrating tube method, x2 = 0

COC(=O)OC [dimethyl carbonate]
mass density [kg/m3], [1]
Settings	100 kPa	5000 kPa	10000 kPa	20000 kPa	30000 kPa	40000 kPa
293.15 K	1069.8 ± 0.3	1074.4 ± 0.3	1078.6 ± 0.3	1086.9 ± 0.3	1094.5 ± 0.3	1101.9 ± 0.4
298.15 K	1063.2 ± 0.3	1068 ± 0.3	1072.4 ± 0.3	1080.8 ± 0.3	1088.7 ± 0.3	1096.2 ± 0.4
303.15 K	1056.5 ± 0.3	1061.3 ± 0.3	1066 ± 0.3	1074.7 ± 0.3	1082.9 ± 0.3	1090.4 ± 0.4
308.15 K	1049.8 ± 0.3	1054.6 ± 0.3	1059.4 ± 0.3	1068.5 ± 0.3	1077 ± 0.3	1084.8 ± 0.3
313.15 K	1043 ± 0.3	1048.1 ± 0.3	1053 ± 0.3	1062.3 ± 0.3	1071 ± 0.3	1079 ± 0.3

CCCCCC [hexane]
mass density [kg/m3], [1]
Settings	100 kPa	5000 kPa	10000 kPa	20000 kPa	30000 kPa	40000 kPa
293.15 K	659.4 ± 0.3	664.8 ± 0.3	669.7 ± 0.4	678.7 ± 0.5	686.9 ± 0.6	694.3 ± 0.7
298.15 K	654.9 ± 0.3	660.4 ± 0.3	665.5 ± 0.4	674.8 ± 0.5	683.2 ± 0.6	690.7 ± 0.7
303.15 K	650.2 ± 0.3	655.8 ± 0.3	661.2 ± 0.4	670.8 ± 0.5	679.3 ± 0.6	687 ± 0.7
308.15 K	645.7 ± 0.3	651.5 ± 0.3	657 ± 0.4	666.9 ± 0.5	675.8 ± 0.6	683.6 ± 0.7
313.15 K	640.9 ± 0.3	647 ± 0.3	652.8 ± 0.4	663.1 ± 0.5	672.1 ± 0.6	680.2 ± 0.7

CCCCCC [hexane] + COC(=O)OC
mass density [kg/m3], [2]
Settings	100 kPa	5000 kPa	10000 kPa	20000 kPa	30000 kPa	40000 kPa
293.15 K	659.4 ± 0.3	664.8 ± 0.3	669.7 ± 0.4	678.7 ± 0.5	686.9 ± 0.6	694.3 ± 0.7
298.15 K	654.9 ± 0.3	660.4 ± 0.3	665.5 ± 0.4	674.8 ± 0.5	683.2 ± 0.6	690.7 ± 0.7
303.15 K	650.2 ± 0.3	655.8 ± 0.3	661.2 ± 0.4	670.8 ± 0.5	679.3 ± 0.6	687 ± 0.7
308.15 K	645.7 ± 0.3	651.5 ± 0.3	657 ± 0.4	666.9 ± 0.5	675.8 ± 0.6	683.6 ± 0.7
313.15 K	640.9 ± 0.3	647 ± 0.3	652.8 ± 0.4	663.1 ± 0.5	672.1 ± 0.6	680.2 ± 0.7
